Data taken from PMC8691750, “Euphorbia Factor L2 ameliorates the Progression of K/BxN Serum-Induced Arthritis by Blocking TLR7 Mediated IRAK4/IKKβ/IRF5 and NF-kB Signaling Pathways” (Frontiers in Pharmacology, 2021).
Entries after “also recorded” stand apart in the source; their conditions may differ.

Tests used:
[1] = test system: bone marrow-derived macrophages (BMDMs); experiment: Cell viability, CCK8 assay, BMDMs; format: cell-based, C57BL/6 mice; conditions: CCK8, 0.1-100 μM, 20 h
Protocol: (§1) RAW264.7 cells, a mouse macrophage cell line, were cultured in DMEM medium containing 10% fetal bovine serum (FBS), 1% penicillin-streptomycin and maintained at 37 °C in 5% CO2 humidified air. Bone marrow-derived macrophages (BMDMs) generation was performed as following description. In brief, bone marrow cells were harvested from tibias and femurs of C57BL/6 mice and differentiated for 7 days in DMEM medium supplemented with 10% FBS, 1% penicillin-streptomycin and 50 ng/ml M-CSF. For human peripheral blood mononuclear cells (PBMCs) preparation, 5 ml peripheral venous blood was obtained from healthy donors in West China Hospital. PBMCs were isolated with Human Lymphocyte Separation Medium (LTS1077, Tian Jing, China) according to the manufacturer’s instructions. The experimental protocols were performed according to the approved guidelines established by the Institutional Human Research Subject Protection Committee of the Ethics Committee of West China Hospital, Sichuan University, China.
(§2) The effects of EFL2 on RAW264.7 cells, BMDMs and PBMCs viability were evaluated by Cell Counting Kit-8 (CCK8) assay (Dojindo, Japan). […] The optical absorbance at 450 nm was read with a Biotek Eon™ microplate reader (Biotek, Vermont, United States).

PBMCs = experiment: Cell viability, CCK8 assay, PBMCs; format: cell-based, human; conditions: CCK8, at 100 μM
Protocol: as §1, §2

[2] = test system: chemokine, cytokine and TLR pathway mRNA expression in the ankles; experiment: Quantitative RT-PCR of ankles of STA mice; format: in vivo, C57BL/6 mice
Protocol: (§3) K/BxN serum was collected from K/BxN mice at 8 weeks of age, pooled, aliquoted and stored at -20 °C. K/BxN serum-transfer arthritis (STA) model was induced by intraperitoneal (i.p.) application of 150 μL of serum at day 0. Clinical score for arthritis severity was assessed using a 0–4 point scale for each paw at various time points (0–16 total score) as described previously ([Luo et al., 2011]). 8-week old male C57BL/6 mice were purchased from Dashuo Animal Center (China, Chengdu), maintained at 25°C, and exposed to 12-h light and dark cycles. Mice were fed with standard laboratory chow and water with 1 week of acclimatization. Naive mice were used as the control group. Except the control mice, all mice were i. p. injected with 150 μL of serum, then randomly divided into the following groups and treated with different compounds daily for the consecutive 8 days: 1) STA group; 2) Solvent control group, mice were gavaged with the solvent; 3) Dexamethasone (DEX) group, mice were gavaged with 30 mg/kg DEX; 4) EFL2 group 1, mice were gavaged with 40 mg/kg EFL2; 5) EFL2 group 2, mice were intraperitoneally injected with 15 mg/kg EFL2; 6) EFL2 group 3, […] were intraperitoneally injected with 40 mg/kg EFL2. […] All animal experiments were conducted in accordance with ethical regulation for animal care and use in China.
Frozen right ankles were pulverized with liquid nitrogen and total RNA was extracted using Trizol reagent (Invitrogen). RNA was reverse transcribed into cDNA using an oligo d(T) primer. The obtained cDNA was applied for quantitative RT-PCR using SYBR Green I-dTTP (Eurogentec). Samples were analyzed in triplicate, and β-actin was used as endogenous controls. Data was analyzed using the 2^−ΔΔCt method and is expressed as “Fold change” (expression relative to housekeeping gene and normalized to reference sample).

[3] = test system: TLR7-mediated NF-κB signaling pathway (IKKα/β, IκBα, p65); experiment: Western blot, NF-κB pathway in R837-stimulated RAW264.7 cells; format: cell-based, mouse; conditions: R837-stimulated RAW264.7
Protocol: RAW264.7 cells (2×10^6 cells/well) were plated into 6-well plates and then incubated at 37°C in 5% CO2 for 24 h. After incubated with various concentrations of EFL2 (1, 5 and 10 µM) for 1 h, cells were then stimulated by R837 (20 μg/ml) for 30 min. Cell lysates were prepared by direct lysis in 20 µL IP buffer (Beyotime Biotechnology, Shanghai, China). After obtaining the whole cell extracts, the cytosolic and nuclear were seperated using Nuclear and Cytoplasmic Protein Extraction Kit (Beyotime Biotechnology, Shanghai, China). BCA Protein Assay Kit (Beyotime Biotechnology, Nantong, China) was applied to determine the protein concentrations. The bands corresponding to p- IKKα/β, IKKα/β, p-IκBα, IκBα, p-p65, p65, p-IRAK4, IRAK4, p-IKKβ, IKKβ, p-IRF5, IRF5, β-actin and Lamin B were visualized using a Western Blot Detection Chemiluminescence Kit (Merck). Protein extracted from the total lysates/cytoplasm and nucleus was quantified in relation to β-actin and Lamin B bands, respectively.
The antibodies used in the experiments were as follows: rabbit anti-mouse IKKα/β polyclonal antibody (1:1,000, Abways, China), rabbit anti-mouse IκBα polyclonal antibody (1:1,000, Abgent, China), rabbit anti-mouse p65 polyclonal antibody (1:1,000, Abgent, China), rabbit anti-mouse phosphorylated IKKα (Ser176)/β (Ser177) (1:1,000, Abways, China), rabbit anti-mouse phosphorylated IκBα (1:1,000, Abcam, United States), rabbit anti-mouse phosphorylated p65 (1:1,000, Abcam, United States), rabbit anti-mouse IRAK4 polyclonal antibody (1:1,000, Proteintech, United States), rabbit anti-mouse phosphorylated IRAK4 (Thr345/Ser346) (1:1,000, Affinity, United States), rabbit anti-mouse IKKβ polyclonal antibody (1:1,000, Abbkine, United States), rabbit anti-mouse phosphorylated IKKβ (Ser177) (1:1,000, Abways, China), rabbit anti-mouse IRF5 polyclonal antibody (1:1,000, Immunoway, United States), rabbit anti-mouse phosphorylated IRF5 (Ser437) (1:1,000, Affinity, United States), anti-mouse actin monoclonal antibody (1:20,000, Transgen, China) and rabbit anti-mouse LaminB monoclonal antibody (1:5,000, Abways, China).

[4] = test system: K/BxN serum-transfer arthritis (STA) model; experiment: K/BxN serum-transfer arthritis (STA) model, arthritic index / clinical score; format: in vivo, C57BL/6 mice; conditions: STA mice
Protocol: as §3

[5] = STA mice day 5, EFL2 40 mg/kg i.p.

## C=C1C(OC(=O)c2ccccc2)CC2C(C=C(C)C(=O)C3(OC(C)=O)CC(C)C(OC(=O)c4ccccc4)C3C1OC(C)=O)C2(C)C (stereo not shown) [EFL2, Euphorbia factor L2]
[1]
  concentration at which significant cytotoxicity is displayed: ≥ 25 µM
PBMCs
  PBMCs viability: did not affect
[2]; [5]
  CXCL1 mRNA expression in the ankles: remarkably down-regulated
  CXCL5 mRNA expression in the ankles: remarkably down-regulated
[2]; STA mice, EFL2 15 mg/kg i.p.
  CCL3 mRNA expression in the ankles: only significantly decreased
[2]; STA mice, EFL2 40 mg/kg i.p.
  CCL3 gene expression in the ankles: significantly reduced
[2]; STA mice, EFL2 40 mg/kg i.p., RT-PCR
  mRNA expression of up-regulated TLR pathway genes (TLR7, TLR2, TLR9, Myd88, IRAK1/4, Nfkbia/ib, IRF5, Rel, Map3K7, Mapk8) in ankles: robust inhibitory effect
[2]; STA mice, EFL2 i.p. treatment
  IL-1β mRNA expression in the ankles: robustly inhibited
  IL-6 mRNA expression in the ankles: robustly inhibited
[3]; EFL2 1, 5, 10 μM
  IKKα/β phosphorylation: effectively inhibited
  IκB-α phosphorylation: effectively inhibited
  p65 phosphorylation: effectively inhibited
[3]; EFL2, also immunofluorescence
  NF-κB subunit p65 translocation activity: significantly suppressed
[4]; EFL2 15 mg/kg i.p. daily, particularly acute phase
  arthritis symptoms (clinical score): to a moderate extent, alleviated
[4]; EFL2 40 mg/kg i.p. daily
  joint swelling and redness (clinical score): dramatically improved
[4]; EFL2 40 mg/kg oral (gavage) daily, 40 mg/kg
  arthritis severity (clinical score): did not affect; also recorded: hardly improved
